One data set concerns the target adenosine A2A receptor (Homo sapiens (Human), UniProt P29274). Put plainly: Adenosine receptor activity assay (Table 1), A2A activity. Conditions: read-out: Ave A2A cAMP IC50. Format: biochemical.
A short description of data set [1]: Hepatocyte (Hep) intrinsic clearance, rat. The data set is classed as in vitro ADME. Conditions: hepatocytes.
The target in the next data set is CYP3A4 (Homo sapiens (Human), UniProt P08684). Put plainly: CYP450 inhibition at 10 μM, CYP3A4. Conditions: human, 10 μM, read-out: CYP 450 % INH @ 10 μM. The data set is classed as in vitro ADME.
Sequence of CYP3A4 (P08684 whole entry): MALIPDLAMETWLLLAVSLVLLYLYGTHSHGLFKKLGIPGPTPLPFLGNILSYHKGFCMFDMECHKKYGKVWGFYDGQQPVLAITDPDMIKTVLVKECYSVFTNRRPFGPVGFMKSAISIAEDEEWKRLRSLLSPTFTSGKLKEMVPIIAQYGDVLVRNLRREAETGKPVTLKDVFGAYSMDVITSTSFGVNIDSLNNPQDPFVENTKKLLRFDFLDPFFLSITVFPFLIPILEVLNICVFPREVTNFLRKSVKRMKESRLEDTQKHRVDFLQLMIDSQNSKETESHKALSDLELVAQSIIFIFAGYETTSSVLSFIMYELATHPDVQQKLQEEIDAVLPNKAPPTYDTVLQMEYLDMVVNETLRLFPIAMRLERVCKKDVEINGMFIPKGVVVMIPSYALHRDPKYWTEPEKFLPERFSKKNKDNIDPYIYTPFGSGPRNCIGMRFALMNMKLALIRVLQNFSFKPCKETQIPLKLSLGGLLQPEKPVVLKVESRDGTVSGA
Data set [2] can be described thus: Hepatocyte (Hep) intrinsic clearance, human. Conditions: hepatocytes. Format: in vitro ADME.
Data set [3] addresses T1, adenosine A1 receptor (Homo sapiens (Human), UniProt P30542). Put plainly: A1 cAMP IC50 assay (Table 1). Format: biochemical.
The next data set addresses adenosine A2B receptor (Homo sapiens (Human), UniProt P29275). Put plainly: Adenosine receptor activity assay (Table 1), A2B activity. Format: biochemical. Conditions: for pIC50: read-out: Ave A2B cAMP IC50.
Data set [4] addresses T2, adenosine A3 receptor (Homo sapiens (Human), UniProt P0DMS8). Put plainly: A3 cAMP IC50 assay (Table 1). Format: biochemical.
Data set [5] deals with T1, adenosine A1 receptor. In words: Adenosine receptor activity assay (Table 1), A1 cAMP. Format: biochemical.
Data set [6] deals with T2, adenosine A3 receptor. In words: Adenosine receptor activity assay (Table 1), A3 cAMP. Format: biochemical.
[7] abbreviates: A2A activity to A2B activity (A2A/A2B).
Where [8] appears, read: A2A activity to the A2B activity, A2A/A2B.

pIC50: −log10 of the molar value. Read-outs that look alike come from different tables or passages of the source.

From patent US11254686B1 (Corvus Pharmaceuticals, Inc., priority 2017, dated 2022) come the findings set out here.

T2 sequence (P0DMS8 whole entry): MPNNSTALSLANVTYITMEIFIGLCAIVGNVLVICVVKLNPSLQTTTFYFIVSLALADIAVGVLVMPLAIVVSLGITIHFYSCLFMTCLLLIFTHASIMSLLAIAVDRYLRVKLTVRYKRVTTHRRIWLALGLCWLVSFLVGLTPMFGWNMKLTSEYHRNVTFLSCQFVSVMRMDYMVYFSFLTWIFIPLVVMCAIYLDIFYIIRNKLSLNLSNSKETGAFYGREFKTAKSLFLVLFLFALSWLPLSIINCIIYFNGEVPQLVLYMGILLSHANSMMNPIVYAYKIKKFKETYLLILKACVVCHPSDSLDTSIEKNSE
Sequence of adenosine A2B receptor (P29275 whole entry): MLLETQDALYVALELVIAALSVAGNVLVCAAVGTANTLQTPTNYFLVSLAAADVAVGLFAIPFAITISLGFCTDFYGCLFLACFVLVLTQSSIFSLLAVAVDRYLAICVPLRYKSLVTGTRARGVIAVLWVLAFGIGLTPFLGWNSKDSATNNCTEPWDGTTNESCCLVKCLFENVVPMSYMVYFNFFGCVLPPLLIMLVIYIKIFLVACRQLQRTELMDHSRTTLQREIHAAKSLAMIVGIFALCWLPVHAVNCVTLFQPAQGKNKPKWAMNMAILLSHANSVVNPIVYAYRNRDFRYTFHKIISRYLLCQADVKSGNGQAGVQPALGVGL
Sequence of adenosine A2A receptor (P29274 whole entry): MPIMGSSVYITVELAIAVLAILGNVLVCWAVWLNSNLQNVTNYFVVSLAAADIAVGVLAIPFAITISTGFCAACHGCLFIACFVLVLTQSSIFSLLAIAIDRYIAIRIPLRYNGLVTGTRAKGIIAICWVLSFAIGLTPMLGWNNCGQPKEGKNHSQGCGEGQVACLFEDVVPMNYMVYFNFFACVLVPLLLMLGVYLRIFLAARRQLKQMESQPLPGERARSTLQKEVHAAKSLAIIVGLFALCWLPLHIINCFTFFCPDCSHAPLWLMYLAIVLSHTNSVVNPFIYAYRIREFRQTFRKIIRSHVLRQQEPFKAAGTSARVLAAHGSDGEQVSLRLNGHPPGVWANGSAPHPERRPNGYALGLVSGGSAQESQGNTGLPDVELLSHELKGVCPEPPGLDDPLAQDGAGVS
T1 sequence (P30542 whole entry): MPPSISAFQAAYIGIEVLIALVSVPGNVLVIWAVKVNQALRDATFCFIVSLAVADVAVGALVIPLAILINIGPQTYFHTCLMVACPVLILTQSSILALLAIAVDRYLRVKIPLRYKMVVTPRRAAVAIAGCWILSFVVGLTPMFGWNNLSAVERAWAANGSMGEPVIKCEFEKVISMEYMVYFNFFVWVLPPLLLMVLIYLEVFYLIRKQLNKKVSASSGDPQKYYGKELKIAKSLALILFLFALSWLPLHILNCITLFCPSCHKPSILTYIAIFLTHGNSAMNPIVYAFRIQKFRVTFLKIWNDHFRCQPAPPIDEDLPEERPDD

As for `C[C@@H]1CCN(C(=O)c2nc(N[C@@H](C)c3ccccn3)nc3ccsc23)C1` [Example Z86, ((R)-3-Methylpyrrolidin-1-yl)(2-(((S)-1-(pyridin-2-yl)ethyl)amino)thieno[3,2-d]pyrimidin-4-yl)methanone], the pIC50 is 7.00 to 7.30 at adenosine A2A receptor, below 6.30 against adenosine A1 receptor [3], 7.30 to 8.00 on adenosine A2B receptor and below 6.30 at adenosine A3 receptor [4]. Besides, the hepatocyte CLint in data set [1] was found to be 55.1 µL/min/1e6 cells; in data set [2] it was 11.8 µL/min/1e6 cells. Besides, the inhibition at 10 µM on CYP3A4 was 19%. In addition, the Ratio on adenosine A2B receptor (setting [7]) came to 4.25.

Regarding `C[C@H]1CCN(C(=O)c2nc(N[C@@H](C)c3ccccn3)nc3ccsc23)C1` [Example Z87, ((S)-3-Methylpyrrolidin-1-yl)(2-(((S)-1-(pyridin-2-yl)ethyl)amino)thieno[3,2-d]pyrimidin-4-yl)methanone], the pIC50 at adenosine A2A receptor was 6.30 to 7.00; at adenosine A1 receptor [3], below 6.30; at adenosine A2B receptor, 7.30 to 8.00; at adenosine A3 receptor [4], below 6.30. The hepatocyte CLint in data set [1] is 57.6 µL/min/1e6 cells; in [2], 13.3 µL/min/1e6 cells. In addition, the inhibition at 10 µM on CYP3A4 was determined as 19.9%. Also, the Ratio at adenosine A2B receptor (setting [7]) is 11.70.

For `C[C@H](Nc1nc(C(=O)N2CCC2)c2sccc2n1)c1ccccn1` [Example Z90, (S)-Azetidin-1-yl(2-((1-(pyridin-2-yl)ethyl)amino)thieno[3,2-d]pyrimidin-4-yl)methanone], the pIC50 was 7.00 to 7.30 at adenosine A2A receptor, below 6.30 on adenosine A1 receptor [3], above 8.00 at adenosine A2B receptor and below 6.30 against adenosine A3 receptor [4]. Moreover, the hepatocyte CLint in data set [1] is 33.3 µL/min/1e6 cells; in data set [2] it was 6.32 µL/min/1e6 cells. The inhibition at 10 µM on CYP3A4 stood at 0%. The Ratio at adenosine A2B receptor (setting [7]) is 18.88.

For `Cc1ncccc1CNc1nc(C(=O)N2CCCC2)c2sccc2n1` [Example Z91, (2-(((2-Methylpyridin-3-yl)methyl)amino)thieno[3,2-d]pyrimidin-4-yl)(pyrrolidin-1-yl)methanone], the negative logarithm of the IC50 (pIC50) is 6.30 to 7.00 at adenosine A2A receptor and 7.30 to 8.00 at adenosine A2B receptor. Further, the hepatocyte CLint in [1] was 47.1 µL/min/1e6 cells; in [2], 7.19 µL/min/1e6 cells. Further, at CYP3A4, the inhibition at 10 µM stood at 19%. The Ratio at adenosine A2B receptor (setting [7]) was 16.69.

As for `C[C@H](Nc1nc(C(=O)N2CC(F)(F)C2)c2sccc2n1)c1ccccn1` [Example Z92, (S)-(3,3-Difluoroazetidin-1-yl)(2-((1-(pyridin-2-yl)ethyl)amino)thieno[3,2-d]pyrimidin-4-yl)methanone], the negative-log IC50 (pIC50) at adenosine A2A receptor is 6.30 to 7.00; at adenosine A1 receptor [3], below 6.30; on adenosine A2B receptor, 7.30 to 8.00; at adenosine A3 receptor [4] it was below 6.30. Moreover, the intrinsic clearance (hepatocyte CLint) stood at 46.5 µL/min/1e6 cells in data set [1] and 45.2 µL/min/1e6 cells in [2]. Moreover, at CYP3A4, the inhibition at 10 µM was determined as 0%. In addition, on adenosine A2B receptor (setting [7]), the Ratio came out at 10.92.

As to `COC1CN(C(=O)c2nc(N[C@@H](C)c3ccccn3)nc3ccsc23)C1` [Example Z108, (S)-(3-Methoxyazetidin-1-yl)(2-((1-(pyridin-2-yl)ethyl)amino)thieno[3,2-d]pyrimidin-4-yl)methanone], the results for the hepatocyte CLint in [1] and in [2] were 23.4 µL/min/1e6 cells and 5.66 µL/min/1e6 cells, respectively. Moreover, at CYP3A4, the inhibition at 10 µM is 31%. Besides, the results for the pIC50 at adenosine A1 receptor [3], on adenosine A2B receptor and on adenosine A3 receptor [4] were below 6.30, 7.30 to 8.00 and below 6.30, respectively. Besides, on adenosine A2B receptor (setting [7]), the Ratio is given as 10.93.

Take `O=C(c1nc(NCc2cccc(Cl)c2)nc2ccsc12)N1CCC1` [Example Z121, Azetidin-1-yl(2-((3-chlorobenzyl)amino)thieno[3,2-d]pyrimidin-4-yl)methanone]: the values for the pIC50 at adenosine A2A receptor and on adenosine A2B receptor were 6.30 to 7.00 and 7.30 to 8.00, respectively. The hepatocyte CLint in [1] was 249 µL/min/1e6 cells; in [2], 85.1 µL/min/1e6 cells. The inhibition at 10 µM on CYP3A4 turned out to be 48.6%.

With `O=C(c1nc(NCc2cccc(Cl)c2)nc2ccsc12)N1CC(O)C1` [Example Z122, (2-((3-Chlorobenzyl)amino)thieno[3,2-d]pyrimidin-4-yl)(3-hydroxyazetidin-1-yl)methanone], the negative logarithm of the IC50 (pIC50) at adenosine A2A receptor was 6.30 to 7.00; at adenosine A2B receptor, 7.30 to 8.00. Further, the figures for the hepatocyte CLint in data set [1] and in [2] were 112 µL/min/1e6 cells and 68.4 µL/min/1e6 cells, respectively. The inhibition at 10 µM at CYP3A4 came out at 22.9%.

Turning to `C[C@H](Nc1nc(C(=O)N2CC(NC(=O)C3CCC(F)(F)CC3)C2)c2sccc2n1)c1cncc(F)c1` [Example Z640, (S)-4,4-Difluoro-N-(1-(2-((1-(5-fluoropyridin-3-yl)ethyl)amino)thieno[3,2-d]pyrimidine-4-carbonyl)azetidin-3-yl)cyclohexane-1-carboxamide], the pIC50 on adenosine A2A receptor (cAMP) is 7.30 to 8.00; against adenosine A1 receptor [5], below 6.30; on adenosine A2B receptor (cAMP), 7.30 to 8.00; against adenosine A3 receptor [6] it was 6.30 to 7.00. Also, the Ratio on adenosine A2B receptor (setting [8]) was found to be 1.24.

For the molecule `C[C@H](Nc1nc(C(=O)N2CC(NC(=O)C3(C)CC3)C2)c2sccc2n1)c1cncc(Cl)c1` [Example Z641, (S)—N-(1-(2-((1-(5-Chloropyridin-3-yl)ethyl)amino)thieno[3,2-d]pyrimidine-4-carbonyl)azetidin-3-yl)-1-methylcyclopropane-1-carboxamide], the negative-log IC50 (pIC50) at adenosine A2A receptor (cAMP) was 7.30 to 8.00; against adenosine A1 receptor [5], below 6.30; at adenosine A2B receptor (cAMP), above 8.00; at adenosine A3 receptor [6], 6.30 to 7.00. Besides, the Ratio on adenosine A2B receptor (setting [8]) is listed as 1.81.

Take `C[C@H](Nc1nc(C(=O)N2CC(NC(=O)C(C)(C)C)C2)c2sccc2n1)c1cncc(Cl)c1` [Example Z642, (S)—N-(1-(2-((1-(5-Chloropyridin-3-yl)ethyl)amino)thieno[3,2-d]pyrimidine-4-carbonyl)azetidin-3-yl)pivalamide]: the negative-log IC50 (pIC50) on adenosine A2A receptor (cAMP) is above 8.00; against adenosine A1 receptor [5] it was below 6.30; at adenosine A2B receptor (cAMP), 7.30 to 8.00; at adenosine A3 receptor [6], 6.30 to 7.00. Moreover, the Ratio on adenosine A2B receptor (setting [8]) was determined as 0.57.

On to `C[C@H](Nc1nc(C(=O)N2CC(NC(=O)C3(C(F)(F)F)CCC3)C2)c2sccc2n1)c1cncc(F)c1` [Example Z643, (S)—N-(1-(2-((1-(5-Fluoropyridin-3-yl)ethyl)amino)thieno[3,2-d]pyrimidine-4-carbonyl)azetidin-3-yl)-1-(trifluoromethyl)cyclobutane-1-carboxamide], for which the pIC50 on adenosine A2A receptor (cAMP) was above 8.00; on adenosine A1 receptor [5], below 6.30; on adenosine A2B receptor (cAMP), 7.30 to 8.00; on adenosine A3 receptor [6], 6.30 to 7.00. Moreover, the Ratio on adenosine A2B receptor (setting [8]) worked out at 0.19.

For the molecule `C[C@H](Nc1nc(C(=O)N2CC(NC(=O)C3(C)CCC3)C2)c2sccc2n1)c1cncc(Cl)c1` [Example Z644, (S)—N-(1-(2-((1-(5-Chloropyridin-3-yl)ethyl)amino)thieno[3,2-d]pyrimidine-4-carbonyl)azetidin-3-yl)-1-methylcyclobutane-1-carboxamide], the pIC50 is above 8.00 at adenosine A2A receptor (cAMP), below 6.30 against adenosine A1 receptor [5], 7.30 to 8.00 on adenosine A2B receptor (cAMP) and 6.30 to 7.00 on adenosine A3 receptor [6]. For the same molecule, at adenosine A2B receptor (setting [8]), the Ratio is listed as 0.59.

`C[C@H](Nc1nc(C(=O)N2CC(NC(=O)c3ccc(-c4ccccc4)cc3)C2)c2sccc2n1)c1cncc(F)c1` [Example Z645, (S)—N-(1-(2-((1-(5-Fluoropyridin-3-yl)ethyl)amino)thieno[3,2-d]pyrimidine-4-carbonyl)azetidin-3-yl)-[1,1′-biphenyl]-4-carboxamide]: the pIC50 on adenosine A2A receptor (cAMP) is 7.30 to 8.00; at adenosine A1 receptor [5], below 6.30; at adenosine A2B receptor (cAMP), 7.00 to 7.30; against adenosine A3 receptor [6] it was 7.00 to 7.30. Besides, on adenosine A2B receptor (setting [8]), the Ratio was 0.48.

`Cc1cc(C)cc(C(=O)NC2CN(C(=O)c3nc(N[C@@H](C)c4cncc(F)c4)nc4ccsc34)C2)c1` [Example Z646, (S)—N-(1-(2-((1-(5-Fluoropyridin-3-yl)ethyl)amino)thieno[3,2-d]pyrimidine-4-carbonyl)azetidin-3-yl)-3,5-dimethylbenzamide]: the pIC50 on adenosine A2A receptor (cAMP) was 7.30 to 8.00; against adenosine A1 receptor [5] it was below 6.30; at adenosine A2B receptor (cAMP), 7.30 to 8.00; at adenosine A3 receptor [6] it was 6.30 to 7.00. Moreover, the Ratio on adenosine A2B receptor (setting [8]) was found to be 0.65.

For the molecule `Cc1cc(C(=O)NC2CN(C(=O)c3nc(N[C@@H](C)c4cncc(F)c4)nc4ccsc34)C2)c(C)o1` [Example Z647, (S)—N-(1-(2-((1-(5-Fluoropyridin-3-yl)ethyl)amino)thieno[3,2-d]pyrimidine-4-carbonyl)azetidin-3-yl)-2,5-dimethylfuran-3-carboxamide], the pIC50 at adenosine A2A receptor (cAMP) is 7.30 to 8.00; on adenosine A1 receptor [5], below 6.30; at adenosine A2B receptor (cAMP), 7.30 to 8.00; against adenosine A3 receptor [6], 6.30 to 7.00. In addition, the Ratio at adenosine A2B receptor (setting [8]) was 1.16.

“(S)—N-(1-(2-((1-(5-Fluoropyridin-3-yl)ethyl)amino)-7-methylthieno[3,2-d]pyrimidine-4-carbonyl)azetidin-3-yl)pivalamide [Example Z624]”: the pIC50 was above 8.00 at adenosine A2A receptor (cAMP), below 6.30 at adenosine A1 receptor [5], 7.30 to 8.00 at adenosine A2B receptor (cAMP) and 6.30 to 7.00 on adenosine A3 receptor [6]. Besides, the Ratio at adenosine A2B receptor (setting [8]) came out at 0.18.

Regarding “N-(tert-Butoxy)-1-(2-(((S)-1-(5-fluoropyridin-3-yl)ethyl)amino)-6-methylthieno[3,2-d]pyrimidine-4-carbonyl)pyrrolidine-3-carboxamide [Example Z602]”, the negative logarithm of the IC50 (pIC50) is above 8.00 at adenosine A2A receptor (cAMP), below 6.30 on adenosine A1 receptor [5], 7.30 to 8.00 on adenosine A2B receptor (cAMP) and 6.30 to 7.00 against adenosine A3 receptor [6]. In addition, the Ratio on adenosine A2B receptor (setting [8]) was found to be 0.49.
